Measurements as given in ChEMBL document CHEMBL1201862, “PubChem BioAssay data set” (2004).
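Values below derive from 48-hour exposures of cells grown in 96-well plates, with endpoints linearly interpolated between the two concentrations bracketing the appropriate inhibition level. Here, GI50 denotes the concentration required for 50% inhibition of growth.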 Activity calls are given as the source filed them. Cut-off read from the data, not from the text of the source: active = GI50 up to about 1.1 µM and inactive = higher.

Key:
Assay in all cases: NCI tumour cell line growth inhibition, 48 h
OVCAR-8 = tested on: OVCAR-8
SF-295 = tested on: SF-295
NCI/ADR-RES = tested on: NCI/ADR-RES
MDA-MB-435 = tested on: MDA-MB-435
SF-539 = tested on: SF-539
HCT-116 = tested on: HCT-116
T47D = tested on: T47D
CAKI-1 = tested on: CAKI-1
TK-10 = tested on: TK-10
COLO 205 = tested on: COLO 205
RXF 393 = tested on: RXF 393
BT-549 = tested on: BT-549
NCI-H522 = tested on: NCI-H522
IGROV-1 = tested on: IGROV-1
PC-3 = tested on: PC-3
HT-29 = tested on: HT-29
OVCAR-5 = tested on: OVCAR-5
SK-MEL-5 = tested on: SK-MEL-5
K562 = tested on: K562
UO-31 = tested on: UO-31
OVCAR-4 = tested on: OVCAR-4
NCI-H460 = tested on: NCI-H460
MCF7 = tested on: MCF7
EKVX = tested on: EKVX
SN12C = tested on: SN12C
U-251 = tested on: U-251
HOP-62 = tested on: HOP-62
UACC-257 = tested on: UACC-257
786-0 = tested on: 786-0
SNB-75 = tested on: SNB-75
HCC 2998 = tested on: HCC 2998
SK-MEL-2 = tested on: SK-MEL-2
ACHN = tested on: ACHN
UACC-62 = tested on: UACC-62
HL-60 = tested on: HL-60
MOLT-4 = tested on: MOLT-4
CCRF-CEM = tested on: CCRF-CEM
SR = tested on: SR
HOP-92 = tested on: HOP-92
A549 = tested on: A549
NCI-H226 = tested on: NCI-H226
SNB-19 = tested on: SNB-19
MDA-MB-231 = tested on: MDA-MB-231
LOX IMVI = tested on: LOX IMVI
M14 = tested on: M14
SK-MEL-28 = tested on: SK-MEL-28
DU-145 = tested on: DU-145
RPMI-8226 = tested on: RPMI-8226
A498 = tested on: A498
SW-620 = tested on: SW-620
MDA-N = tested on: MDA-N
SF-268 = tested on: SF-268
Malme-3M = tested on: Malme-3M
HCT-15 = tested on: HCT-15
KM12 = tested on: KM12
Hs-578T = tested on: Hs-578T
OVCAR-3 = tested on: OVCAR-3
SK-OV-3 = tested on: SK-OV-3
NCI-H23 = tested on: NCI-H23

Measured: GI50

Cc1c(F)c(N)c2c(=O)cc(-c3ccc(N)c(F)c3)oc2c1F [AMINOFLAVONE]
33.3 µM: HCT-15
active: T47D 0.313 µM | CAKI-1 < 0.0131 µM | TK-10 0.258 µM | IGROV-1 0.0723 µM | OVCAR-5 0.15 µM | K562 0.279 µM | NCI-H460 0.199 µM | MCF7 0.0156 µM | UACC-257 0.298 µM | A498 0.366 µM | SW-620 0.0305 µM | OVCAR-3 0.458 µM
inactive: OVCAR-8 19.6 µM | SF-295 15.6 µM | NCI/ADR-RES 13.9 µM | MDA-MB-435 43.5 µM | SF-539 14.9 µM | HCT-116 12.1 µM | COLO 205 32.5 µM | RXF 393 17 µM | BT-549 17.5 µM | NCI-H522 9.71 µM | PC-3 20.7 µM | HT-29 33.7 µM | SK-MEL-5 20.4 µM | UO-31 5.33 µM | OVCAR-4 18.8 µM | EKVX 13.7 µM | SN12C 17.1 µM | U-251 4.2 µM | HOP-62 12.7 µM | 786-0 14.2 µM | SNB-75 26.7 µM | HCC 2998 19 µM | SK-MEL-2 40.6 µM | ACHN 15.7 µM | UACC-62 4.73 µM | HL-60 44.8 µM | MOLT-4 46.9 µM | CCRF-CEM 28 µM | SR 18.7 µM | HOP-92 23 µM | A549 2.09 µM | NCI-H226 3.52 µM | SNB-19 21 µM | MDA-MB-231 18.7 µM | LOX IMVI 21.3 µM | M14 57.3 µM | SK-MEL-28 45.1 µM | DU-145 26.3 µM | RPMI-8226 14.9 µM | MDA-N 29.4 µM | SF-268 23.1 µM | Malme-3M 33.5 µM | KM12 21.9 µM | Hs-578T 38.1 µM | SK-OV-3 17.6 µM | NCI-H23 19.6 µM

COC1=CC(=O)c2c(O)c3c(c(O)c2C1=O)CC(C)(O)OC3 (stereo not drawn) [FUSARUBIN]
active: COLO 205 0.897 µM | Malme-3M 0.653 µM | OVCAR-3 0.906 µM
1.58 µM: HCT-15
inactive: OVCAR-8 2.34 µM | SF-295 3.12 µM | NCI/ADR-RES 2.56 µM | MDA-MB-435 1.65 µM | SF-539 3.33 µM | HCT-116 2.96 µM | T47D 2.05 µM | CAKI-1 3.73 µM | TK-10 10.6 µM | RXF 393 4.17 µM | BT-549 6.44 µM | NCI-H522 2.25 µM | IGROV-1 1.99 µM | PC-3 2.52 µM | HT-29 2.12 µM | OVCAR-5 4.46 µM | SK-MEL-5 1.16 µM | K562 3.44 µM | UO-31 3.97 µM | OVCAR-4 1.4 µM | NCI-H460 1.18 µM | MCF7 1.34 µM | EKVX 5.32 µM | SN12C 3.61 µM | U-251 3.08 µM | HOP-62 3.19 µM | UACC-257 2.02 µM | 786-0 5.51 µM | SNB-75 16.1 µM | HCC 2998 2.99 µM | SK-MEL-2 1.95 µM | ACHN 2.95 µM | UACC-62 2.07 µM | HL-60 2.42 µM | MOLT-4 2.64 µM | CCRF-CEM 1.25 µM | SR 5.36 µM | HOP-92 2.88 µM | A549 1.99 µM | NCI-H226 15.7 µM | SNB-19 3.27 µM | MDA-MB-231 2.84 µM | LOX IMVI 2.59 µM | M14 1.87 µM | SK-MEL-28 6.11 µM | DU-145 3.97 µM | RPMI-8226 6.37 µM | A498 9.66 µM | SW-620 3.75 µM | MDA-N 1.89 µM | SF-268 3.85 µM | KM12 3.1 µM | Hs-578T 2.38 µM | SK-OV-3 18.2 µM | NCI-H23 2.28 µM
